# Experimental data taken from patent US8871767B2, “2-arylimidazo[1,2-B]pyridazine, 2-phenylimidazo[1,2-A]pyridine, and 2-phenylimidazo[1,2-A]pyrazine derivatives” (Hengrui (USA) Ltd., priority 2010, dated 2014).
# Where two headings read alike, the source gives them in different places.
# Assays:
# [1] = tested on: Hedgehog pathway activation on 10T1/2/Smo#3 cells (C3H10T1/2 cells transfected with human Smoothened receptor); experiment: Hedgehog pathway activation on 10T1/2/Smo#3 cells measured by ALP activity; assay type: cell-based; details: Mus musculus, C3H 10T1/2, 10T1/2/Smo#3 cells
# Method: Hedgehog conditioned media was obtained by transfecting 293H cells with the full length gene encoding human Sonic Hedgehog (hShh) inserted into the pCMV6 expression vector, which contains a neomycin selectable marker and expresses the protein of interest with a C-terminal FLAG affinity tag. After selection in G418 containing media, conditioned media from Hedgehog expressing clones were tested for the ability to activate the hedgehog-responsive GLi-luciferase reporter in the Shh Light II cell line obtained by license from John Hopkins University (Taipale J, et al. Effects of oncogenic mutations in Smoothened and Patched can be reversed by cyclopamine. Nature 406: 1005-1009, 2000).
# C3H10T1/2 cells were transfected with a pCMV expression vector containing the full length gene sequence encoding the human Smoothened receptor. Pooled cells, designated 10T1/2/Smo#3, growing in G418 selection media responded to activation by 10-20% conditioned hShh media with an approximate 5-10 fold increase in alkaline phosphaste (ALP) activity over untransfected parent C3H10T1/2 cells as measured by the conversion of the free acid of 4-methylumbelliferyl phosphate to a fluorescent product.
# A test compound library was screened against hShh and 500 nM SAG (a direct agonist of the Smoothened receptor) activated 10T1/2/Smo#3 cells and Shh Light II reporter cells for the ability to block Hedgehog pathway activation. Concurrently, cell viability was measured by utilizing Celltiter-Blue® (Promega, Madison Wis.) viability assay. Active compounds were defined as those that inhibited Hedgehog signaling by greater than 50% with no concurrent loss in cell viability.
# Their inhibitory activity against Hedgehog pathway activation on 10T1/2/Smo#3 cells as measured by ALP activity and Shh Light II reporter cells as measured by luciferase activity is shown in Table 1 below. In Table 1, +++ stands for an IC50 value that is less than 0.3 μM, ++ between 0.3 and 3 μM, + between 3 and 30 μM.
# Additional data for compounds of the invention is shown below in Table 2. Their inhibitory activities against Hedgehog pathway activation are shown as IC50 values in μM on 10T1/2/Smo#3 cells as measured by ALP activity, or on Shh Light II reporter cells as measured by luciferase activity (hShh activation).
# [2] = tested on: Hedgehog pathway activation (GLi-luciferase reporter) in Shh Light II reporter cells; experiment: Hedgehog pathway activation on Shh Light II reporter cells measured by luciferase activity; assay type: cell-based; details: Mus musculus, Shh Light II
# Summary of the method: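 Shh Light II reporter cells carrying a hedgehog-responsive GLi-luciferase reporter were stimulated either with 500 nM SAG, a direct Smoothened agonist, or with conditioned media containing human Sonic Hedgehog (hShh). Test compounds were evaluated for blocking this pathway activation, quantified by luciferase activity. Cell viability was monitored in parallel with the Celltiter-Blue® assay.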
# [3] = measured by ALP activity, read-out: ALP (IC50, inhibition of Hedgehog pathway activation)
# [4] = hShh activation, read-out: Shh (IC50, inhibition of Hedgehog pathway activation)
# [5] = hShh activation, ALP activity, read-out: 10T1/2/Smo#3 ALP activity (hShh Activation)
# [6] = SAG activation (500 nM SAG), read-out: Shh Light II luciferase activity (SAG activation)
# [7] = hShh activation, read-out: Shh Light II luciferase activity (hShh activation)
Structure (SMILES),"IC50 [1, 3] [nM]","IC50 [2, 4] [nM]","IC50 [1, 5] [nM]","IC50 [2, 6] [nM]","IC50 [2, 7] [nM]"
"CC(C)(C)C(=O)Nc1cc(-c2cn3nc(-c4cccc(O)c4)ccc3n2)ccc1C(F)(F)F [Example 242, N-(5-(6-(3-hydroxyphenyl)imidazo[1,2-b]pyridazin-2-yl)-2-(trifluoromethyl)phenyl)pivalamide]",446,402,,,
"CC(C)(C)C(=O)Nc1cc(-c2cn3nc(OC4CCOCC4)ccc3n2)ccc1C(F)(F)F [Example 310, N-(5-(6-(tetrahydro-2H-pyran-4-yloxy)imidazo[1,2-b]pyridazin-2-yl)-2-(trifluoromethyl)phenyl)pivalamide]",1780,721,,,
"COc1cnccc1-c1ccc2nc(-c3ccc(C(F)(F)F)c(NC(=O)C(C)(C)C)c3)cn2n1 [Example 382, N-(5-(6-(3-methoxypyridin-4-yl)imidazo[1,2-b]pyridazin-2-yl)-2-(trifluoromethyl)phenyl)pivalamide]",536,1220,,,
"COc1ccc2nc(-c3ccc(C)c(NC(=O)C(C)(C)C)c3)c(-c3ccc(F)cc3)n2n1 [Example 114, N-(5-(3-(4-fluorophenyl)-6-methoxyimidazo[1,2-b]pyridazin-2-yl)-2-methylphenyl)pivalamide]",> 10000,7660,3000 to 30000,3000 to 30000,3000 to 30000
COC(=O)C=Cc1ccc(Cl)c(-c2ccc3nc(-c4ccc(C)c(NC(=O)C(C)(C)C)c4)cn3n2)c1 [compound 573],1040,70,,,
Cc1ccc(-c2cn3nc(-c4ccc(C(C)(C)O)cc4C(F)(F)F)ccc3n2)cc1NC(=O)C(C)(C)C [compound 533],449,301,,,
"Cc1c(NC(=O)C(C)(C)C)cccc1-c1cn2nc(-c3ccccc3F)ccc2n1 [Example 219, N-(3-(6-(2-fluorophenyl)imidazo[1,2-b]pyridazin-2-yl)-2-methylphenyl)pivalamide]",952,1260,300 to 3000,3000 to 30000,300 to 3000
"CC(C)(C)C(=O)Nc1cc(-c2cn3cc(-c4ccccc4F)ccc3n2)ccc1C(F)(F)F [Example 83, N-(5-(6-(2-fluorophenyl)imidazo[1,2-a]pyridin-2-yl)-2-(trifluoromethyl)phenyl)pivalamide]",1350,1010,300 to 3000,300 to 3000,300 to 3000

# Compounds with a lower IC50 [1, 3], results first:
"IC50 [1, 3] [nM]","IC50 [2, 4] [nM]","IC50 [1, 5] [nM]","IC50 [2, 6] [nM]","IC50 [2, 7] [nM]",Structure (SMILES)
258,345,,,,"CC(C)(C)C(=O)Nc1cc(-c2cn3nc(N4CCCCC4)ccc3n2)ccc1C(F)(F)F [Example 288, N-(5-(6-(piperidin-1-yl)imidazo[1,2-b]pyridazin-2-yl)-2-(trifluoromethyl)phenyl)pivalamide]"
140,95,,,,"CC(C)(C)C(=O)Nc1cc(-c2cn3nc(-c4ccccc4Cl)ccc3n2)ccc1C(F)(F)F [Example 208, N-(5-(6-(2-chlorophenyl)imidazo[1,2-b]pyridazin-2-yl)-2-(trifluoromethyl)phenyl)pivalamide]"
23,44,< 300,< 300,< 300,"Cc1ccc(-c2cn3nc(N4CC[C@H](O)C4)ccc3n2)cc1NC(=O)C(C)(C)C [Example 346, (S)-N-(5-(6-(3-hydroxypyrrolidin-1-yl)imidazo[1,2-b]pyridazin-2-yl)-2-methylphenyl)pivalamide]"
97,79,,,,"CC(C)(C)C(=O)Nc1cc(-c2cn3nc(-c4cccnc4F)ccc3n2)ccc1C(F)(F)F [Example 176, N-(5-(6-(2-fluoropyridin-3-yl)imidazo[1,2-b]pyridazin-2-yl)-2-(trifluoromethyl)phenyl)pivalamide]"
227,689,,,,"COc1ccncc1-c1ccc2nc(-c3ccc(C(F)(F)F)c(NC(=O)C(C)(C)C)c3)cn2n1 [Example 384, N-(5-(6-(4-methoxypyridin-3-yl)imidazo[1,2-b]pyridazin-2-yl)-2-(trifluoromethyl)phenyl)pivalamide]"
